The numbers were not newly measured in US20210008096A1, “SUPPRESSION OR REDUCTION OF THE PAT[…] VIRULENCE OF A C[…]” (Da Volterra, priority 2015, published 2021), which cites them from elsewhere.

The test system of this data set is Clostridium difficile. The following applies: following treatment of CDAD; 15% vs 25%.

Structures are written as SMILES.

Turning to `CCc1c(Cl)c(O)c(Cl)c(O)c1C(=O)O[C@H]1[C@H](O)[C@H](OC)[C@H](OC/C2=C\C=C\C[C@H](O)/C(C)=C/[C@H](CC)[C@@H](O[C@@H]3OC(C)(C)[C@@H](OC(=O)C(C)C)[C@H](O)[C@@H]3O)/C(C)=C/C(C)=C/C[C@@H]([C@@H](C)O)OC2=O)O[C@@H]1C` [fidaxomycin, fidaxomicin], the rate of recurrence was 15%.
